Experimental data published in patent US20250228235A1, “METHODS TO IMPROVE ORRGAN VIABILITY” (Mallinckrodt Pharmaceuticals Ireland Limited, priority 2017, published 2025).

How the values were obtained:
[1] = system: cerebral mitochondrial function (cortical and hippocampal tissue); test: High-resolution respirometry of cortical and hippocampal tissue to assess mitochondrial function after cardiac arrest; format: in vivo, swine; details: iNO 20 ppm vs placebo
Description: (§1) Neurologic injury following pediatric cardiac arrest (CA) remains common. Inhaled nitric oxide (iNO) may mitigate cerebral mitochondrial dysfunction, a critical convergence point for secondary brain injury, triggered by CA. It was hypothesized that following asphyxia and cardiac arrest, animals treated with 20 ppm iNO during CPR and four hours post-return of spontaneous circulation (ROSC) will have improved cerebral blood flow (CBF) and improved mitochondrial function as defined by increased respiratory control ratio (RCR) and decreased mitochondrial reactive oxygen species (mtROS) compared with placebo.
(§2) 4-week-old swine received 7 minutes of asphyxia, then ventricular fibrillation. Guideline CPR was performed with compression depth (CD)≥⅓ of the chest diameter and standard epinephrine continued for 10 mins or until ROSC, with protocolized post-ROSC care. In a blinded fashion, subjects were randomized (iNO 20 ppm initiated 1 minute into CPR period, n=10, or placebo, n=10). […] Baseline and continuous CBF measurements were taken using invasive clinical and non-invasive optical instrumentation. Cortical and hippocampal tissue were analyzed by high-resolution respirometry to assess mitochondrial function. T-tests and ANOVA were used where applicable. Longitudinal hemodynamic variables were compared using generalized estimating equations to control for within-subject correlation.

4-week-old swine = test: Blinded, randomized, controlled pediatric swine asphyxial model of cardiac arrest (survival, cerebral blood flow, hemodynamics); format: in vivo
Description: as §1, §2

Q: `[N]=O` [iNO, nitric oxide] was tested. Which “mtROS generation, cortex” value ([1]; cortex, p<0.001) did it give?
A: The value was “significantly lower”.

Q: And the “Cortex RCR (respiratory control ratio)” value ([1]; cortex, p=0.04)?
A: Its value is “significantly higher”.

Q: And the “hippocampal RCR (respiratory control ratio)” value ([1]; hippocampus, p=0.007)?
A: Its value is “significantly higher”.

Q: And the “mtROS generation, hippocampus” value ([1]; hippocampus, p=0.03)?
A: Its value is “significantly lower”.

Q: And the “invasive or noninvasive CBF (cerebral blood flow)” value (4-week-old swine; during CPR and post-ROSC, iNO 20 ppm vs placebo)?
A: Its value is “no significant differences”.

Q: And the survived (4-week-old swine; iNO 20 ppm initiated 1 minute into CPR, n=10, placebo 7/10, p=0.21)?
A: Its survived is 10/10.
